ChEMBL document CHEMBL1131083, “Tipranavir (PNU-140690): a potent, orally bioavailable nonpeptidic HIV protease inhibitor of the 5,6-dihydro-4-hydroxy-2-pyrone sulfonamide class” (J Med Chem, 1998)

Experiments:
[1] = target: Human immunodeficiency virus type 1 protease (Human immunodeficiency virus 1) (UniProt Q72874); test: Inhibition of HIV-1 protease in a cell culture assay using HIV-1 IIIB infected H9 cells.; assay type: functional, cell-based
[2] = target: Human immunodeficiency virus type 1 protease (Human immunodeficiency virus 1, UniProt Q72874); test: Inhibitory activity against HIV-1 protease in tandem assay.
[3] = target: Human immunodeficiency virus type 1 protease (Human immunodeficiency virus 1) (UniProt Q72874); test: Inhibitory activity against HIV-1 Protease in tandem assay; settings: concentration not given here
H9 [4] = test: Inhibitory activity against HIV-1 Protease in a cell culture assay using HIV-1 IIIB infected H9 cells at 3 uM; assay type: functional; settings: Homo sapiens
[5] = Inhibition of HIV-1 protease in a cell culture assay using HIV-1 IIIB infected H9 cells.
H9 [6] = test: Inhibitory activity against HIV-1 Protease in a cell culture assay using HIV-1 IIIB infected H9 cells at 1 uM; assay type: functional; settings: Homo sapiens

**Q.** Which IC90 [1] does the source give for `CCCC1(CCC)CC(=O)C(C(c2cccc(NS(=O)(=O)c3cn(C)cn3)c2)C(C)(C)C)=C(O)O1` (stereo not given) here?
**A.** 1000 nM

**Q.** And the Ki [2]?
**A.** 0.87 nM

**Q.** Which Ki [2] does the source give for `CCC(C1=C(O)OC(C23C[C@H]4C[C@@H](C2)C[C@@H](C3)C4)CC1=O)c1cccc(NS(=O)(=O)c2cn(C)cn2)c1` (stereo not given in full) here?
**A.** 23 nM

**Q.** With `CCCC1(CCC)CC(=O)C(Cc2cccc(NS(=O)(=O)c3cn(C)cn3)c2)=C(O)O1` as the compound, how does the inhibition [3] read?
**A.** 50%

**Q.** What about the inhibition at 3 µM (H9 [4]) of the same compound?
**A.** 5%

**Q.** Which IC90 [1] does the source give for `CCC[C@]1(CCc2ccccc2)CC(=O)C([C@H](CC)c2cccc(NS(=O)(=O)c3ccc(C#N)cn3)c2)=C(O)O1` here?
**A.** 890 nM

**Q.** What about the Ki [2] of the same compound?
**A.** 0.04 nM

**Q.** Which IC90 [1] does the source give for `CCC(C1=C(O)OC(CCc2ccccc2)(CCc2ccccc2)CC1=O)c1cccc(NS(=O)(=O)c2cn(C)cn2)c1` (stereo not given) here?
**A.** 2000 nM

**Q.** What about the Ki [2] of the same compound?
**A.** 1 nM

**Q.** Which IC50 [5] does the source give for `CCC[C@@]1(CCc2ccccc2)CC(=O)C([C@@H](CC)c2cccc(NS(=O)(=O)c3ccc(C(F)(F)F)cn3)c2)=C(O)O1` (stereo in doubt; 39d) here?
**A.** 410 nM

**Q.** Which IC90 [1] does the source give for `CCCC1(CCC)CC(=O)C(C(CC)c2cccc(NS(=O)(=O)c3cn(C)cn3)c2)=C(O)O1` (stereo not given) here?
**A.** 2000 nM

**Q.** And the Ki [2]?
**A.** 1.8 nM

**Q.** Which IC90 [1] does the source give for `CCCC1(CCc2ccccc2)CC(=O)C(C(c2cccc(NS(=O)(=O)c3ccc(C#N)cn3)c2)C(C)(C)C)=C(O)O1` (stereo not given) here?
**A.** 340 nM

**Q.** And the Ki [2]?
**A.** 1.9 nM

**Q.** For `CCC[C@@]1(CCc2ccccc2)CC(=O)C([C@@H](CC)c2cccc(NS(=O)(=O)c3cn(C)cn3)c2)=C(O)O1`, which IC90 [1] is on record?
**A.** > 1000 nM

**Q.** And the Ki [2]?
**A.** 0.3 nM

**Q.** Which IC90 [1] does the source give for `CCCC1(CCc2ccccc2)CC(=O)C(C(CC)c2cccc(NS(=O)(=O)c3ccc(C#N)cn3)c2)=C(O)O1` (stereo not given) here?
**A.** 470 nM

**Q.** What about the Ki [2] of the same compound?
**A.** 0.1 nM

**Q.** For `CCC[C@@]1(CCc2ccccc2)CC(=O)C([C@@H](CC)c2cccc(NS(=O)(=O)c3ccc(C(F)(F)F)cn3)c2)=C(O)O1` (stereo in doubt; 39c), which IC50 [5] is on record?
**A.** 1700 nM

**Q.** For `CCCC1(CCc2ccccc2)CC(=O)C(C(CC)c2cccc(NS(=O)(=O)c3ccccc3)c2)=C(O)O1` (stereo not given), which IC50 [5] is on record?
**A.** 1600 nM

**Q.** Which IC90 [1] does the source give for `CCC(C1=C(O)OC(CCC2CC2)(CCC2CC2)CC1=O)c1cccc(NS(=O)(=O)c2cn(C)cn2)c1` (stereo not given) here?
**A.** 2900 nM

**Q.** And the Ki [2]?
**A.** 1.7 nM

**Q.** Which Ki [2] does the source give for `CCCC1(CCc2ccccc2)CC(=O)C(C(CC)c2cccc(NS(=O)(=O)c3cn(C)cn3)c2)=C(O)O1` (stereo not given) here?
**A.** 1.2 nM

**Q.** For `CCCC1(CCc2ccccc2)CC(=O)C(C(CC)c2cccc(NS(=O)(=O)CCC)c2)=C(O)O1` (stereo not given), which Ki [2] is on record?
**A.** > 1 nM

**Q.** Which IC50 [5] does the source give for `CCCC1(CCc2ccccc2)CC(=O)C(C(CC)c2cccc(NS(=O)(=O)c3cccc4cccnc34)c2)=C(O)O1` (stereo not given) here?
**A.** 1000 nM

**Q.** And the Ki [2]?
**A.** 3.1 nM

**Q.** Which IC50 [5] does the source give for `CCCC1(CCc2ccccc2)CC(=O)C(C(CC)c2cccc(NS(=O)(=O)c3ccc(F)cc3)c2)=C(O)O1` (stereo not given) here?
**A.** 1200 nM

**Q.** And the Ki [2]?
**A.** 6.1 nM

**Q.** What does the source list for `CCCC1(CCc2ccccc2)CC(=O)C(Cc2cccc(NS(=O)(=O)c3cn(C)cn3)c2)=C(O)O1` (stereo not given)?
**A.** inhibition at 1 µM (H9 [6]): 0%; Ki [2]: 13 nM

**Q.** With `CCCC1(CCc2ccc(F)cc2)CC(=O)C(C(CC)c2cccc(NS(=O)(=O)c3cn(C)cn3)c2)=C(O)O1` (stereo not given) as the compound, how does the IC90 [1] read?
**A.** 2000 nM

**Q.** What about the Ki [2] of the same compound?
**A.** 3 nM

**Q.** With `CCC[C@@]1(CCc2ccccc2)CC(O)=C([C@H](CC)c2cccc(NS(=O)(=O)c3ccc(C(F)(F)F)cn3)c2)C(=O)O1` [TIPRANAVIR] as the compound, how does the IC50 [5] read?
**A.** 30 nM

**Q.** And the Ki [2]?
**A.** 0.008 nM

**Q.** Which results are given for `CCCC1(CCc2ccccc2)CC(=O)C(C(c2cccc(NS(=O)(=O)c3ccc(N)cn3)c2)C(C)(C)C)=C(O)O1` (stereo not given)?
**A.** IC90 [1]: 740 nM; Ki [2]: 0.2 nM

**Q.** With `CCC[C@@]1(CCc2ccccc2)CC(=O)C([C@H](CC)c2cccc(NS(=O)(=O)c3cn(C)cn3)c2)=C(O)O1` as the compound, how does the IC90 [1] read?
**A.** 560 nM

**Q.** And the Ki [2]?
**A.** 0.06 nM

**Q.** Which IC90 [1] does the source give for `CCCC1(CCc2ccccc2)CC(=O)C(C(c2cccc(NS(=O)(=O)c3ccc([N+](=O)[O-])cn3)c2)C(C)(C)C)=C(O)O1` (stereo not given) here?
**A.** > 3000 nM

**Q.** What about the Ki [2] of the same compound?
**A.** 2.3 nM

**Q.** With `CCC[C@@]1(CCc2ccccc2)CC(O)=C([C@H](CC)c2cccc(NS(=O)(=O)c3ccc(C#N)cn3)c2)C(=O)O1` as the compound, how does the IC50 [5] read?
**A.** 40 nM

**Q.** Which results are given for `CCC[C@@]1(CCc2ccccc2)CC(=O)C([C@@H](CC)c2cccc(NS(=O)(=O)c3ccc(C#N)cn3)c2)=C(O)O1`?
**A.** IC90 [1]: 1000 nM; Ki [2]: 0.1 nM

**Q.** For `CCC(C1=C(O)OC(COCCOCCOC)(COCCOCCOC)CC1=O)c1cccc(NS(=O)(=O)c2cn(C)cn2)c1` (stereo not given), which inhibition at 3 µM (H9 [4]) is on record?
**A.** 0%

**Q.** And the Ki [2]?
**A.** 28 nM

**Q.** For `CCC[C@]1(CCc2ccccc2)CC(=O)C([C@H](CC)c2cccc(NS(=O)(=O)c3cn(C)cn3)c2)=C(O)O1`, which IC90 [1] is on record?
**A.** 1000 nM

**Q.** And the Ki [2]?
**A.** 0.12 nM

**Q.** For `CCCC1(CCc2ccccc2)CC(=O)C(C(c2cccc(NS(=O)(=O)c3cn(C)cn3)c2)C2CC2)=C(O)O1` (stereo not given), which IC90 [1] is on record?
**A.** 1000 nM

**Q.** What about the Ki [2] of the same compound?
**A.** 0.71 nM

**Q.** For `CCC[C@]1(CCc2ccccc2)CC(=O)C(C(CC)c2cccc(NS(=O)(=O)c3ccc(C(F)(F)F)cn3)c2)=C(O)O1` (stereo not given in full), which IC90 [1] is on record?
**A.** 840 nM

**Q.** And the Ki [2]?
**A.** 0.018 nM

**Q.** Which results are given for `CCCCCC1(CCCCC)CC(=O)C(C(CC)c2cccc(NS(=O)(=O)c3cn(C)cn3)c2)=C(O)O1` (stereo not given)?
**A.** IC90 [1]: < 3000 nM; Ki [2]: 2.6 nM

**Q.** Which IC90 [1] does the source give for `CCCC1(CCC)CC(=O)C(C(c2cccc(NS(=O)(=O)c3cn(C)cn3)c2)C2CC2)=C(O)O1` (stereo not given) here?
**A.** 3000 nM

**Q.** What about the Ki [2] of the same compound?
**A.** 0.52 nM

**Q.** For `CCC(C1=C(O)OC(CC(C)C)(CC(C)C)CC1=O)c1cccc(NS(=O)(=O)c2cn(C)cn2)c1` (stereo not given), which IC90 [1] is on record?
**A.** 7400 nM

**Q.** What about the Ki [2] of the same compound?
**A.** 3 nM

**Q.** Which results are given for `CCCC1(CCc2ccccc2)CC(=O)C(C(CC)c2cccc(NS(=O)(=O)c3ccc(C#N)cc3)c2)=C(O)O1` (stereo not given)?
**A.** IC50 [5]: 1100 nM; Ki [2]: 8.2 nM

**Q.** For `CCCC1(CCc2ccccc2)CC(=O)C(C(c2cccc(NS(=O)(=O)c3ccc(C#N)cc3)c2)C(C)(C)C)=C(O)O1` (stereo not given), which IC90 [1] is on record?
**A.** 3000 nM

**Q.** And the Ki [2]?
**A.** 12 nM

**Q.** With `CCCC1(CCc2ccccc2)CC(=O)C(C(c2cccc(NS(=O)(=O)c3cn(C)cn3)c2)C(C)(C)C)=C(O)O1` (stereo not given) as the compound, how does the IC90 [1] read?
**A.** 690 nM

**Q.** What about the Ki [2] of the same compound?
**A.** 1.2 nM

**Q.** Which IC90 [1] does the source give for `CCCC1(CCc2ccccc2)CC(=O)C(C(c2cccc(NS(=O)(=O)c3ccc(C(F)(F)F)cn3)c2)C(C)(C)C)=C(O)O1` (stereo not given) here?
**A.** 990 nM

**Q.** What about the Ki [2] of the same compound?
**A.** 4.3 nM
